This is an account of results in patent US8906953B2, “Pyrrolidine substitute flavones for the treatment of inflammatory disorders” (Piramal Enterprises Limited, priority 2010, dated 2014).

What all share (type): cell-based
The subject of one experiment is IL-6. The experiment in a line: LPS-induced IL-6 release from hPBMCs (ELISA). Particulars: Homo sapiens. As to the method:
Cytokine production by lipopolysaccharides (LPS) in hPBMCs (human peripheral blood mononuclear cells) was measured as in reference, Physiol. Res. 2003, 52, 593-598, the disclosure of which is incorporated by reference for the teaching of the assay. Blood was collected from healthy donors into Potassium EDTA vacutainer tubes (BID vacutainer). The PBMC were isolated using gradient centrifugation in Histopaque-1077 solution (Sigma). Isolated PBMC were suspended in RPMI 1640 (Rosewell Park Memorial Institute) culture medium (Sigma-Aldrich Fine Chemicals, USA) containing 10% fetal bovine serum (FBS) (JRH, USA), 100 U/mL penicillin (Sigma Chemical Co. St Louis, Mo., USA) and 100 μg/mL streptomycin (Sigma Chemical Co. St Louis, Mo.). The cell concentration was adjusted to 1×10^6 cells/mL. The viability as determined by trypan blue dye exclusion was uniform Ly≧98%. The cell suspension (100 μL) was added to the wells of a 96-well culture plate. Following cell plating, 79 μL of the culture medium and 1 μL of various concentrations of test compounds (compounds of formula 1) (final concentration 0.001, 0.003, 0.005, 0.01, 0.025, 0.03, 0.05, 0.1, 0.25, 0.3 and 1 μM) dissolved in DMSO (dimethyl sulfoxide, Sigma, Mo., USA) were added to the cells. The final concentration of DMSO was adjusted to 0.5%. The vehicle (0.5% DMSO) was used as control. […]
(In an ELISA, binding on a coated surface is turned into a signal by an enzyme label.)

Another experiment has as its system IL-8. Kind of experiment: Spontaneous IL-8 release from synovial cells of RA patients. Particulars: Homo sapiens, Synovial cell, freshly isolated synovial cells from RA patients, 16 hours. How it is done: Cytokine production in synovial cells obtained from rheumatoid arthritis patients undergoing knee replacement surgery, was measured as per the method described in reference, Lancet, 1989, 29, 244-247, the disclosure of which is incorporated herein by reference for the teaching of the assay. The synovial membrane tissue was digested by incubating at 37° C. for 3 hours in an atmosphere of 5% CO2, in Roswell Park Memorial Institute (RPMI) medium containing penicillin-G (100 U/mL), streptomycin (100 μg/mL), amphotericin B (50 ng/mL) (GIBCO), 1.33 mg/mL collagenase Type I (Worthington Biochemical Corporation, New Jersey, USA), 0.5 μg/mL DNAse Type I (SIGMA) and 8.33 U/mL heparin (Biological E. Limited, India). The digested tissue was then filtered through a membrane (mesh size 70 micron) (SIGMA), the cells were washed 3 times and suspended in complete medium (RPMI supplemented with 5% FCS and 5% human serum). The cell concentration was adjusted to 1×10^6 cells/mL. The viability as determined by trypan blue dye exclusion was uniform Ly≧98%. The cell suspension (100 μL) was added to the wells of a 96-well culture plate. Following cell plating, 100 μL of the culture medium and 1 μL of various concentrations of the compound of example 3 (final concentration 0.001, 0.003, 0.01, 0.03, 0.1, 0.3, 1 and 3 μM) dissolved in DMSO (dimethylsulfoxide, Sigma, Mo., USA) were added to the cells. […]

The next experiment relates to VCAM-1. The experiment in a line: TNF-α induced cell surface expression of VCAM-1 on HUVECs. Conditions: Homo sapiens, HUVEC; TNF-α (1 ng/mL) stimulated HUVECs, 6 hours, n=2. How it is done:
The assay was designed as in reference, Transplantation, 1997, 63(5), 759-764, the disclosure of which is incorporated herein by reference for the teaching of the assay.
Human umbilical vein endothelial cells (HUVECs) were obtained from Cascade Biologics (Oregon-USA). Cells were cultured in M-200 medium (Cascade Biologics) supplemented with low serum growth supplements (LSGS) (Cascade Biologics), penicillin-G (100 U/mL), streptomycin (100 μg/mL) and amphotericin B (50 ng/mL) (GIBCO). […] After TNF-α stimulation (1 ng/mL) (R&D Systems (Minneapolis, Minn.)) for 4 hours at 37° C. in an atmosphere of 5% CO2, supernatants were harvested and assayed for the expression of ICAM-1 (intercellular cell adhesion molecules), whereas the expressions of VCAM-1 (vascular cell adhesion molecules) and E-selectin were evaluated after 6 hours of stimulation. […] To quantitatively measure the amount of cell surface expressions of ICAM-1, VCAM-1 and E-selectin, ELISA assay was performed using anti-ICAM-1 (clone BBIG-I1), anti-VCAM-1 (clone BBIG-V1), anti-E-selectin (clone BBIG-E4) antibodies, isotype control mouse IgG1 (clone 11711.11) and the secondary antibody (anti-mouse IgG-HRP antibody) which were procured from R&D Systems (Minneapolis, Minn., USA). […]

Structures are written as SMILES.

For orientation: IC50 means the concentration at which inhibition is half-maximal. Take `CN1CC[C@@H](c2c(O)cc(O)c3c(=O)cc(-c4ccc(C(F)(F)F)cc4Cl)oc23)[C@@H]1CO.Cl` [Compound of example 3, (+)-trans-2-(2-Chloro-4-trifluoromethyl-phenyl)-5,7-dihydroxy-8-(2-hydroxymethyl-1-methyl-pyrrolidin-3-yl)-chromen-4-one hydrochloride]: the 50% inhibitory concentration (IC50) in the experiment with IL-6 came to 100 nM; in the experiment with IL-8 it was 3500 nM; in the experiment on VCAM-1, 280 nM.
